Measured values as given in US9725442B2, “Heterocyclic derivative having PGD2 receptor antagonist activity” (Shionogi & Co., Ltd., priority 2011, dated 2017).
Where two headings read alike, the source gives them in different places.

Columns and labels:
Human DP1 receptor = Human DP1 receptor (Homo sapiens (Human), UniProt Q13258); assay: Human DP1 inhibitory activity in DP1-expressing cell (PGD2-induced cAMP); assay type: cell-based
Experimental: Compounds were categorized as AA (cAMP is less than 100 nM) and A (cAMP is more than 100 nM and less than 5000 nM) as shown in Table 99 and 100.

CRTH2 = CRTH2 (Homo sapiens (Human), UniProt Q9Y5Y4); assay: CRTH2 receptor binding inhibitory activity ([3H]-PGD2 displacement, membranes of CRTH2-expressing K562 cell); details: [3H]-PGD2 displacement, membrane of CRTH2-expressing K562 cell, read-out: Ki
Outline: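 Incubation ran 60 min at room temperature using 20 μg/well membrane from CRTH2-expressing K562 cells in pH 7.4 Tris/HCl (50 mM) with 10 mM MgCl2.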

[1] = category of cAMP IC50, human DP1 receptor expressing Jurkut cell
[2] = CRTH2 receptor binding, categorized AAAA/AAA

CRTH2, sequence (Q9Y5Y4 whole entry): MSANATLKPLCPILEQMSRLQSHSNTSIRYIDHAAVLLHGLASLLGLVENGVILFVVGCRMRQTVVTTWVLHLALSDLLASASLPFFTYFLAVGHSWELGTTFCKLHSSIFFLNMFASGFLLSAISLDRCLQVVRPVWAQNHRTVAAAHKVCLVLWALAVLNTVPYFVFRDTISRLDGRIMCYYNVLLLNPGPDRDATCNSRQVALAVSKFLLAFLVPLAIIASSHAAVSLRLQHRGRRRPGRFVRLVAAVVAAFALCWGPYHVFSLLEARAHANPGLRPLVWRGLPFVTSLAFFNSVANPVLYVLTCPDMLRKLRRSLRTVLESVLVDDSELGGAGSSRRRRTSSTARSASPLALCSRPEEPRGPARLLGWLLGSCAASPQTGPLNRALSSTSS
Human DP1 receptor, sequence (Q13258 whole entry): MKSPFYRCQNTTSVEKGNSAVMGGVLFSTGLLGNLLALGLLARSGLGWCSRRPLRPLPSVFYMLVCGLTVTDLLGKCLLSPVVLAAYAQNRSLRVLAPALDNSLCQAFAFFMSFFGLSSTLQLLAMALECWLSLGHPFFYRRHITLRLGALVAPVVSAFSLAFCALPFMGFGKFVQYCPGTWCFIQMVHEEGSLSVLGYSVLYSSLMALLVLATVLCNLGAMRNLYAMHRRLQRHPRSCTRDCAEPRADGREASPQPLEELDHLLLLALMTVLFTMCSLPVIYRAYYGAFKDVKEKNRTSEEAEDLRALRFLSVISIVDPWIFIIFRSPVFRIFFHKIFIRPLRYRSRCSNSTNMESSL

IC50 (Human DP1 receptor; [1]) | Ki (CRTH2; [2]) | Ki (CRTH2) | IC50 (Human DP1 receptor; IC50 of PGD2 (60 nM)-induced cAMP increase, human DP1 receptor expressing Jurkut cell) | SMILES
0.1 to 5 µM | 0.1 to 5 µM | – | – | CCOc1ccc(S(=O)(=O)N2C[C@@H](n3nc(CC(=O)O)c4ccc(F)cc43)[C@@H](C)[C@@H]2C#N)cc1 [Compound I-155]
0.1 to 5 µM | 0.1 to 5 µM | 0.27 µM | – | CC(C)Oc1ccc(S(=O)(=O)N2C[C@@H](C)[C@@H](n3nc(Cc4nnn[nH]4)c4ccc(F)cc43)C2)cc1 [Compound I-157]
0.1 to 5 µM | < 0.1 µM | – | – | C[C@]1(O)CN(S(=O)(=O)c2ccc(F)cc2)C[C@@H]1n1nc(CC(=O)O)c2ccccc21 [Compound I-158]
< 0.1 µM | 0.1 to 5 µM | – | – | CCOc1ccc(S(=O)(=O)N2C[C@@H](C)[C@@H](n3nc(CC(=O)O)c4cc(C#N)ccc43)C2)cc1 [Compound I-160]
< 0.1 µM | 0.1 to 5 µM | – | – | CCOc1ccc(S(=O)(=O)N2C[C@@H](C)[C@@H](n3nc(CC(=O)O)c4cc(Cl)ccc43)C2)cc1 [Compound I-161]
< 0.1 µM | 0.1 to 5 µM | – | – | CCOc1ccc(S(=O)(=O)N2C[C@@H](C)[C@@H](n3nc(CC(=O)O)c4cc(Cl)ccc43)C2)cn1 [Compound I-162]
< 0.1 µM | 0.1 to 5 µM | – | – | CC(C)Oc1ccc(S(=O)(=O)N2C[C@@H](C)[C@@H](n3nc(CC(=O)O)c4cc(Cl)ccc43)C2)cc1 [Compound I-163]
< 0.1 µM | 0.1 to 5 µM | – | – | CC(C)Oc1ccc(S(=O)(=O)N2C[C@@H](C)[C@@H](n3nc(CC(=O)O)c4cc(C#N)c(F)cc43)C2)cc1 [Compound I-167]
< 0.1 µM | < 0.1 µM | – | – | CCOc1ncc(S(=O)(=O)N2C[C@@H](C)[C@@H](n3nc(CC(=O)O)c4ccccc43)C2)s1 [Compound I-168]
< 0.1 µM | < 0.1 µM | – | – | CCOc1ccc(S(=O)(=O)N2C[C@@H](C)[C@@H](n3nc(CC(=O)O)c4ccc(F)cc43)C2)s1 [Compound I-169]
< 0.1 µM | < 0.1 µM | – | – | CCOc1ncc(S(=O)(=O)N2C[C@@H](C)[C@@H](n3nc(CC(=O)O)c4ccc(C)cc43)C2)s1 [Compound I-170]
< 0.1 µM | < 0.1 µM | – | – | CCOc1ccc(S(=O)(=O)N2C[C@@H](C)[C@@H](n3nc(CC(=O)O)c4ccc(C)cc43)C2)s1 [Compound I-171]
< 0.1 µM | < 0.1 µM | – | – | CCOc1ccc(S(=O)(=O)N2C[C@@H](C)[C@@H](n3nc(CC(=O)O)c4ccc(C#N)cc43)C2)cc1 [Compound I-172]
0.1 to 5 µM | < 0.1 µM | 0.011 µM | – | CCOc1ccc(S(=O)(=O)N2C[C@@H](C)[C@@H](n3nc(CC(=O)O)c4ccc(C#N)cc43)C2)cn1 [Compound I-173]
< 0.1 µM | < 0.1 µM | 0.05 µM | 0.099 µM | CC(C)Oc1ccc(S(=O)(=O)N2C[C@@H](C)[C@@H](n3nc(CC(=O)O)c4cc5c(cc43)OCO5)C2)cc1 [Compound I-174]
0.1 to 5 µM | < 0.1 µM | – | – | CCOc1ccc(S(=O)(=O)N2C[C@@H](C)[C@@H](n3nc(CC(=O)O)c4cc5c(cc43)OCO5)C2)cc1 [Compound I-175]
0.1 to 5 µM | < 0.1 µM | – | – | CCOc1ccc(S(=O)(=O)N2C[C@@H](C)[C@@H](n3nc(CC(=O)O)c4cc5c(cc43)OCO5)C2)cn1 [Compound I-176]
0.1 to 5 µM | < 0.1 µM | – | – | COc1ccc(S(=O)(=O)N2C[C@@H](C)[C@@H](n3nc(CC(=O)O)c4ccccc43)C2)s1 [Compound I-178]
< 0.1 µM | < 0.1 µM | – | – | COc1ccc(S(=O)(=O)N2C[C@@H](C)[C@@H](n3nc(CC(=O)O)c4ccc(F)cc43)C2)s1 [Compound I-179]
0.1 to 5 µM | < 0.1 µM | – | – | COc1ccc(S(=O)(=O)N2C[C@@H](C)[C@@H](n3nc(CC(=O)O)c4ccc(C)cc43)C2)s1 [Compound I-180]
0.1 to 5 µM | 0.1 to 5 µM | – | – | CCOc1ccc(S(=O)(=O)N2C[C@@H](C)[C@@H](n3nc(CC(=O)O)c4ccccc43)C2)c(C=NOC)c1 [Compound I-181]
0.1 to 5 µM | < 0.1 µM | – | – | CCOc1ccc(S(=O)(=O)N2C[C@@H](C)[C@@H](n3nc(CC(=O)O)c4ccccc43)C2)c(/C=C/COC)c1 [Compound I-182]
0.1 to 5 µM | < 0.1 µM | – | – | CCOc1ccc(S(=O)(=O)N2C[C@@H](C)[C@@H](n3nc(CC(=O)O)c4ccccc43)C2)c(CCCOC)c1 [Compound I-183]
0.1 to 5 µM | < 0.1 µM | – | – | CCOc1ccc(S(=O)(=O)N2C[C@@H](C)[C@@H](n3nc(CC(=O)O)c4ccccc43)C2)c(COC)c1 [Compound I-184]
0.1 to 5 µM | < 0.1 µM | – | – | CCOc1ccc(S(=O)(=O)N2C[C@@H](C)[C@@H](n3nc(CC(=O)O)c4ccccc43)C2)c(/C=C/c2ccccc2)c1 [Compound I-185]

IC50 (Human DP1 receptor; [1]) | Ki (CRTH2; [2]) | Ki (CRTH2) | IC50 (Human DP1 receptor; IC50 of PGD2 (60 nM)-induced cAMP increase, human DP1 receptor expressing Jurkut cell) | SMILES
0.1 to 5 µM | < 0.1 µM | – | – | CCOc1ccc(S(=O)(=O)N2C[C@@H](C)[C@@H](n3nc(CC(=O)O)c4ccccc43)C2)c(CCc2ccccc2)c1 [Compound I-186]
0.1 to 5 µM | < 0.1 µM | – | – | CCOc1ccc(S(=O)(=O)N2C[C@@H](C)[C@@H](n3nc(CC(=O)O)c4ccccc43)C2)c(-c2ccccc2)c1 [Compound I-187]
0.1 to 5 µM | 0.1 to 5 µM | – | – | CCOc1ccc(S(=O)(=O)N2C[C@@H](C)[C@@H](n3nc(CC(=O)O)c4ccccc43)C2)cc1[N+](=O)[O-] [Compound I-188]
0.1 to 5 µM | < 0.1 µM | – | – | COCCOc1ccc(S(=O)(=O)N2C[C@@H](C)[C@@H](n3nc(CC(=O)O)c4ccccc43)C2)cc1 [Compound I-189]
0.1 to 5 µM | < 0.1 µM | – | – | CC(C)OCCOc1ccc(S(=O)(=O)N2C[C@@H](C)[C@@H](n3nc(CC(=O)O)c4ccccc43)C2)cc1 [Compound I-190]
0.1 to 5 µM | < 0.1 µM | – | – | CCOCCOc1ccc(S(=O)(=O)N2C[C@@H](C)[C@@H](n3nc(CC(=O)O)c4ccccc43)C2)cc1 [Compound I-191]
0.1 to 5 µM | < 0.1 µM | – | – | C[C@@H]1CN(S(=O)(=O)c2ccc(OCCOc3ccccc3)cc2)C[C@@H]1n1nc(CC(=O)O)c2ccccc21 [Compound I-192]
0.1 to 5 µM | 0.1 to 5 µM | – | – | C[C@@H]1CN(S(=O)(=O)c2ccc(OCCOC(C)(C)C)cc2)C[C@@H]1n1nc(CC(=O)O)c2ccccc21 [Compound I-193]
0.1 to 5 µM | < 0.1 µM | – | – | C[C@H]1CN(S(=O)(=O)c2ccc(OC(F)F)cc2)C[C@@H]1n1nc(CC(=O)O)c2ccccc21 [Compound I-194]
0.1 to 5 µM | < 0.1 µM | – | – | C[C@@H]1CN(S(=O)(=O)c2ccc(OC(F)F)cc2)C[C@H]1n1nc(CC(=O)O)c2ccccc21 [Compound I-195]
< 0.1 µM | < 0.1 µM | – | – | CCOc1ccc(S(=O)(=O)N2C[C@H](n3nc(CC(=O)O)c4ccccc43)C[C@@H]2C)cc1 [Compound I-196]
0.1 to 5 µM | 0.1 to 5 µM | – | – | CC(C)Oc1ccc(S(=O)(=O)N2C[C@@H](C)[C@H](n3nc(CC(=O)O)c4ccccc43)C2)cc1 [Compound I-199]
< 0.1 µM | < 0.1 µM | – | – | CCOc1ccc(S(=O)(=O)N2C[C@@H](C)[C@@H](n3nc(CC(=O)O)c4ccccc43)C2)c(C#N)c1 [Compound I-200]
0.1 to 5 µM | < 0.1 µM | – | – | CCOc1ccc(S(=O)(=O)N2C[C@H](C)[C@@H](n3nc(CC(=O)O)c4ccccc43)C2)cn1 [Compound I-201]
< 0.1 µM | 0.1 to 5 µM | – | – | CCOc1ccc(S(=O)(=O)N2C[C@@H](C)[C@@H](n3nc(CC(=O)O)c4cc(C)ccc43)C2)cc1 [Compound I-202]
< 0.1 µM | 0.1 to 5 µM | – | – | Cc1ccc2c(c1)c(CC(=O)O)nn2[C@H]1CN(S(=O)(=O)c2ccc(OC(C)C)cc2)C[C@H]1C [Compound I-203]
< 0.1 µM | < 0.1 µM | – | – | COc1ccc2c(CC(=O)O)nn([C@H]3CN(S(=O)(=O)c4ccc(OC(C)C)cc4)C[C@H]3C)c2c1 [Compound I-204]
< 0.1 µM | 0.1 to 5 µM | – | – | CCOc1ccc(S(=O)(=O)N2C[C@@H](C)[C@@H](n3nc(CC(=O)O)c4c(C)cccc43)C2)cn1 [Compound I-206]
< 0.1 µM | 0.1 to 5 µM | – | – | CCOc1ccc(S(=O)(=O)N2C[C@H](n3nc(CC(=O)O)c4ccccc43)C[C@@H]2CF)cc1 [Compound I-209]
0.1 to 5 µM | < 0.1 µM | 0.01 µM | – | CC(C)Oc1ccc(S(=O)(=O)N2CC[C@@H](n3nc(CC(=O)O)c4ccc(F)cc43)[C@@H]2C)cc1 [Compound I-210]
0.1 to 5 µM | 0.1 to 5 µM | – | – | CCOc1ccc(S(=O)(=O)N2C[C@@H](C)[C@@H](n3nc(CC(=O)NS(C)(=O)=O)c4ccccc43)C2)cc1 [Compound I-212]
0.1 to 5 µM | 0.1 to 5 µM | – | – | C[C@@H]1CN(S(=O)(=O)c2ccc(Oc3ccccc3)nc2)C[C@@H]1n1nc(CC(=O)O)c2ccccc21 [Compound I-213]
< 0.1 µM | 0.1 to 5 µM | – | – | Cc1nc2ccc(S(=O)(=O)N3C[C@@H](C)[C@@H](n4nc(CC(=O)O)c5ccccc54)C3)cc2s1 [Compound I-214]
0.1 to 5 µM | < 0.1 µM | 0.022 µM | – | C[C@@H]1CN(S(=O)(=O)c2ccc3occc3c2)C[C@@H]1n1nc(CC(=O)O)c2ccccc21 [Compound I-215]
< 0.1 µM | < 0.1 µM | – | – | CCOc1ccc(S(=O)(=O)N2C[C@@H](C)[C@@H](n3nc(CC(=O)O)c4ccccc43)C2)c(Br)c1 [Compound I-216]

SMILES | IC50 (Human DP1 receptor; [1]) | Ki (CRTH2; [2]) | Ki (CRTH2) | IC50 (Human DP1 receptor; IC50 of PGD2 (60 nM)-induced cAMP increase, human DP1 receptor expressing Jurkut cell)
CCOc1ccc(S(=O)(=O)N2C[C@@H](C)[C@H](n3nc(CC(=O)O)c4ccccc43)C2)cc1 [Compound I-197] | 0.1 to 5 µM | 0.1 to 5 µM | – | –
CCOc1ccc(S(=O)(=O)N2C[C@H](C)[C@@H](n3nc(CC(=O)O)c4ccccc43)C2)cc1 [Compound I-198] | 0.1 to 5 µM | < 0.1 µM | – | –
